For one data set, the system named is M. incognita eggs. As to the kind of experiment: Microwell assay: eggs immersed in compounds, hatch and activity of hatched J2. The data set is classed as in vivo, Meloidogyne incognita. To be noted: 0.1%; for % Active Day 2 / % Active Day 5 / % Active Day 7: J2 hatched from immersed eggs; for Hatch Day 2 / Hatch Day 5 / Hatch Day 7: hatched J2 per well, about 35 eggs per well. As for the experimental part:
(§1) All chemicals were used without further purification.
(§2) These are reported as 0.1% herein.
(§3) The nematodes were then incubated at 26° C. […] Two trials were conducted for each assay.
(§4) The assumptions of the model were checked.

The test system of data set [1] is M. incognita second-stage juveniles. As to the kind of experiment: Microwell assay: previously hatched J2 immersed in compounds, activity and viability. To be noted: for % Active Day 1 / % Active Day 2: 0.1%, previously hatched J2 in aqueous solution; for viability at 0.1 % / mortality at 0.1 %: Meloidogyne incognita, 72 h; for viability at 0.1 %: read-out: % Viable Day 3 rinsed; for mortality at 0.1 %: read-out: nonviable (killed) J2. As to the method:
Nematode cultures: As described in Meyer et al. (Meyer, S. L. F., et al., Nematropica, 46: 85-96 (2016)), M. incognita race 1 (originally isolated in Maryland) was maintained in a greenhouse (24° to 29° C.; natural and supplemental lighting combined for a 16-h daylength) on susceptible cayenne pepper (Capsicum annuum) TA-136′ plants. All greenhouse experiments described herein were conducted under the same conditions. Two to three months after pepper plant inoculation, egg masses were picked from roots. Eggs were separated by 5 min immersion in 0.6% sodium hypochlorite, followed by a rinse in sterile distilled water (SDW). To collect second-stage juveniles (J2) for microwell assays, the surface-sterilized eggs were placed in a hatching chamber (Spectra/Mesh Nylon Filter, openings 25-μm-diam.; Spectrum Laboratories Inc., Rancho Dominguez, Calif.) set in an autoclaved dish that was placed on a rotary shaker for 3 days at 35 rpm. For some M. incognita and H. glycines assays, 25 or […] kanamycin monosulfate (Phytotechnology Laboratories, Shawnee Mission, Kans.) was added to the hatching chamber to prevent growth of bacteria. The collected J2 were then rinsed with water to remove the kanamycin monosulfate.
(§5) Compounds for the studies were purchased from three different companies: methyl benzoate, CAS Number 93-58-3, ≥99% purity; Tween 20, CAS Number: 9005-64-5; Tween 80, CAS Number: 9005-65-6; ethyl benzoate, CAS Number: 93-89-0, natural, ≥99% purity, FCC, FG; vinyl benzoate, CAS Number: 769-78-8, ≥99% purity; n-propyl benzoate, CAS Number: 2315-68-6, 99% purity; n-butyl benzoate, CAS Number: 136-60-7, 99% purity; benzyl benzoate, CAS Number: 120-51-4, natural, ≥99% purity, FCC, FG; methyl 2-methylbenzoate, CAS Number: 89-71-4, 99% purity; methyl 2-chlorobenzoate, CAS Number: 610-96-8, ≥98% purity; methyl 2-methoxybenzoate, CAS Number: 606-45-1, 99% purity and methyl 2-nitrobenzoate, CAS Number: 606-27-9, 98% purity were purchased from Sigma-Aldrich (St. Louis, Mo.). Compounds, iso-butyl benzoate, CAS Number 120-50-3, >98% purity; n-pentyl benzoate, CAS Number: 2049-96-9, ≥98% purity; and n-hexyl benzoate, CAS Number: 6789-88-4, ≥98% purity were purchased from Alfa Aesar (Tewksbury, Mass.). The compounds methyl 3-methoxybenzoate (methyl m-anisate), CAS Number: 5368-81-0; 97% and methyl 3-methylbenzoate (methyl m-toluate), CAS Number: 99-36-5, 97% purity were purchased from TCI America (Portland, Oreg.). All chemicals were used without further purification. Deionized water (DI) containing 1% emulsifier (v/v), Tween 20 and Tween 80, at 1:1 ratio was used to make different VOCs (volatile organic compounds) water solutions and also used as blank control.
(§6) For tests with individual compounds, the concentration of each compound was 0.1% before placement into wells; the final concentration in the wells was 0.095% after addition to eggs or J2 suspended in water. These are reported as 0.1% herein. An exception was Trial 2, M. incognita J2 activity and viability (Table 2): the final concentration was 0.1% after placement in wells. Low concentrations were selected for assays of combined compounds to determine if the combinations would increase nematotoxicity.
(§7) Laboratory assays were conducted in 96-well polystyrene plates following general procedures described in Wen et al. (2019). Each well received approximately 35 J2 (for previously hatched J2 assays) or 35 eggs that each contained either a first-stage juvenile (J1) or a J2. The plates were covered with plastic adhesive sealing film (Excel Scientific, Inc., Victorville Calif.) and then with the plate lids. Parafilm (Bemis, Neenah, Wis.) was used to seal the plates. The nematodes were then incubated at 26° C. […] Following the counts on Day 2, the treatments were removed and the J2 rinsed twice with SDW and incubated in the second rinse. […] Two trials were conducted for each assay.

The test system of a further data set is Heterodera glycines eggs. As to the kind of experiment: Microwell assay: eggs immersed in compounds, hatch and activity of hatched J2. The format is in vivo. To be noted: 0.1%; for % Active Day 2 / % Active Day 5 / % Active Day 7: J2 hatched from immersed eggs; for Hatch Day 2 / Hatch Day 5 / Hatch Day 7: hatched J2 per well, about 35 eggs per well; for pest or weed control at 0.1 %: Heterodera glycines, 168 h, Day 7, read-out: egg hatch suppression compared with the Tween control. As to the method:
as §1, §2, §3, §4

Data set [2] has as its system H. glycines second-stage juveniles. The experiment in a line: Microwell assay: previously hatched J2 immersed in compounds, activity and viability. To be noted: for % Active Day 1 / % Active Day 2: previously hatched J2 in aqueous solution; for viability at 0.1 %: Heterodera glycines, 72 h, read-out: % Viable Day 3 rinsed. As for the experimental part: The isolate of H. glycines race 3, originally isolated in Maryland, was maintained on soybean (Glycine max cv. ‘Essex’). As previously described (Wen, Y., et al. Plant Disease, 103: 2191-2198 (2019)), the roots were gently rubbed in water to dislodge cysts and mature females. The egg suspensions were then poured through nested sieves (#20 over /#60; pore sizes 850 μm and 250 μm diam., respectively) into a 454 g/liter sucrose solution. After 15 min, the cysts and females and cysts that floated to the top were collected, rinsed in water, and crushed with a rubber stopper on a #60 sieve (250-μm diam. pore size) that was partially submerged in distilled water. The egg suspension was washed through nested #230 over #500 sieves (pore sizes 63 μm and 25-μm diam., respectively). The eggs were collected in distilled water, and J2 hatched as described above.
as §5, §6, §7
Statistical analyses: The data were analyzed as either a general linear model using JMP or a generalized linear model for the best distribution to fit the residual using Proc Glimmix (Sas Institute). The assumptions of the model were checked. If not met, then appropriate statistical techniques were used so that data could met the assumptions of the models. In Sas, mean comparisons were done with Sidak adjusted p-values to hold the experiment-wise error at 0.05.

Where “and” joins values, the source holds several entries; their conditions need not be identical. Equal values may be shown once. Marks after values point to notes of the source that are not given here.

For `CC(C)COC(=O)c1ccccc1` [iBB, iso-Butyl benzoate], the “decrease in % active J2 compared with the Tween control” value in the data set with M. incognita eggs (J2 hatched from eggs, 7-day incubation) is recorded as 60%. Besides, in the data set with M. incognita eggs, the “% Active Day 2” value was 61.2 ^ab %, the “% Active Day 5” value was 51.6 ^bc %, the “% Active Day 7” value is reported as 38.0 ^b % and the “Hatch Day 2” value is 6.4 ^abc. In the data set on M. incognita eggs, the “Hatch Day 5” value is on record as 7.2 ^bcd and the “Hatch Day 7” value is 8.2 ^bcd. Besides, in data set [1], the “% Active Day 1” value is reported as 54.8 ^ab %, the “% Active Day 2” value is 41.1 ^b %, the viability at 0.1 % turned out to be 42.9% and the mortality at 0.1 % was 52%. In addition, in the data set on Heterodera glycines eggs, the “% Active Day 2” value is 22.4 ^cd %, the “% Active Day 5” value is 18.4 ^cde %, the “% Active Day 7” value is given as 13.6 ^bc % and the “Hatch Day 2” value is listed as 6.7 ^bcd. Besides, in the data set on Heterodera glycines eggs, the “Hatch Day 5” value was 7.5 ^bcd and the “Hatch Day 7” value was 7.3 ^bcd. Also, the “reduction in % viable J2 compared with the Tween control” value in data set [2] (0.1%, Day 3 following water rinse) was 43%. In data set [2] (0.1%), the “% Active Day 1” value is on record as 55.6 ^c % and the “% Active Day 2” value is recorded as 45.2 ^cd %. The viability at 0.1 % in data set [2] is 34.5%.
Take `CCCCOC(=O)c1ccccc1` [nBB, n-Butyl benzoate]: in the data set on M. incognita eggs, the “% Active Day 2” value was 17.1 ^b %; the “% Active Day 5” value is 0 ^e %; the “% Active Day 7” value is 0% and 0 ^c %; the “Hatch Day 2” value is reported as 3.3 ^cd. Further, in the data set on M. incognita eggs, the “Hatch Day 5” value is 4.1 ^cde and the “Hatch Day 7” value is 4.6 ^de. For the same compound, in data set [1], the “% Active Day 1” value is given as 14.8 ^cd %, the “% Active Day 2” value was 5.8 ^c % and the viability at 0.1 % came to 2.9%. Also, the “nonviable (killed) J2” value in data set [1] (in vivo) is given as “killed most of the J2”. In the data set with Heterodera glycines eggs, the “% Active Day 2” value is listed as 3.6 ^d %, the “% Active Day 5” value is recorded as 9.2 ^de %, the “% Active Day 7” value is 8.8 ^bc % and the “Hatch Day 2” value is recorded as 5.2 ^cd. In addition, in the data set on Heterodera glycines eggs, the “Hatch Day 5” value was 5.6 ^cd, the “Hatch Day 7” value is listed as 5.4 ^cd and the pest or weed control at 0.1 % was 64 to 80%. In data set [2] (0.1%), the “% Active Day 1” value was 52.7 ^c % and the “% Active Day 2” value is 24.2 ^ef %. For the same compound, the viability at 0.1 % in data set [2] turned out to be 26.3%.
As to `CCCCCCOC(=O)c1ccccc1` [nHB, n-Hexyl benzoate], in the data set with M. incognita eggs, the “% Active Day 2” value is recorded as 73.2 ^ab %, the “% Active Day 5” value is listed as 40.5 ^cd %, the “% Active Day 7” value is recorded as 16.5 ^b % and the “Hatch Day 2” value is on record as 11.6 ^ab. For the same compound, in the data set with M. incognita eggs, the “Hatch Day 5” value was 13.0 ^b and the “Hatch Day 7” value is reported as 13.0 ^bc. In data set [1], the “% Active Day 1” value is given as 84.5 ^a %, the “% Active Day 2” value is recorded as 82.4 ^c % and the viability at 0.1 % was 66.3%. Moreover, in data set [1] (in vivo), the “% Viable Day 3 rinsed” value is recorded as “did not have a significant effect”. Moreover, in the data set with Heterodera glycines eggs, the “% Active Day 2” value was 19.1 ^cd %, the “% Active Day 5” value is recorded as 16.8 ^cde %, the “% Active Day 7” value is recorded as 14.6 ^bc % and the “Hatch Day 2” value is reported as 7.3 ^bcd. Besides, in the data set on Heterodera glycines eggs, the “Hatch Day 5” value is 7.5 ^bcd and the “Hatch Day 7” value is recorded as 7.6 ^bcd. In addition, in data set [2] (0.1%), the “% Active Day 1” value is on record as 73.2 ^ab % and the “% Active Day 2” value is 63.5 ^ab %. Further, the viability at 0.1 % in data set [2] worked out at 46.2%.
With `CCCCCOC(=O)c1ccccc1` [nPeB, n-Pentyl benzoate], in the data set with M. incognita eggs, the “% Active Day 2” value was 31.5 ^b %; the “% Active Day 5” value is recorded as 0 ^e %; the “% Active Day 7” value is 0% and 0 ^c %; the “Hatch Day 2” value was 4.9 ^bcd. In addition, the “Hatch Day 7” value in the data set with M. incognita eggs is 6.6 ^cde. In data set [1], the “% Active Day 1” value was 29.9 ^bc %, the “% Active Day 2” value is given as 22.9 ^b % and the viability at 0.1 % was 16.5%. Also, in data set [1] (in vivo), the “nonviable (killed) J2” value is listed as “killed most of the J2”. In the data set with Heterodera glycines eggs, the “% Active Day 2” value was 4.2 ^d %, the “% Active Day 5” value is given as 4.3 ^e %, the “% Active Day 7” value is reported as 4.2 ^c % and the “Hatch Day 2” value is 7.6 ^bcd. In addition, in the data set on Heterodera glycines eggs, the “Hatch Day 5” value is 7.7 ^bcd and the “Hatch Day 7” value is reported as 7.5 ^bcd. In addition, in data set [2] (0.1%), the “% Active Day 1” value is recorded as 54.0 ^c % and the “% Active Day 2” value was 29.1 ^de %. For the same compound, the viability at 0.1 % in data set [2] amounted to 28.4%.
Regarding `CCCOC(=O)c1ccccc1` [nPrB, n-Propyl benzoate], in the data set on M. incognita eggs, the “% Active Day 2” value is given as 0 ^c %, the “% Active Day 5” value is recorded as 0 ^e %, the “% Active Day 7” value is given as 0 ^c % and the “Hatch Day 2” value was 3.5 ^cd. Besides, in the data set on M. incognita eggs, the “Hatch Day 5” value is reported as 4.0 ^cde and the “Hatch Day 7” value was 4.1 ^de. Besides, in data set [1], the “% Active Day 1” value is 0 ^f %, the “% Active Day 2” value is 0 ^d %, the viability at 0.1 % was found to be 0% and the mortality at 0.1 % worked out at 100%. Moreover, in the data set with Heterodera glycines eggs (Day 2), the “hatch suppression compared to the Tween control” value amounted to 60%. Besides, in the data set with Heterodera glycines eggs, the “% Active Day 2” value is listed as 2.2 ^d %, the “% Active Day 5” value is given as 0 ^f %, the “% Active Day 7” value is listed as 0 ^d % and the “Hatch Day 2” value was 5.8 ^cd. Also, in the data set with Heterodera glycines eggs, the “Hatch Day 5” value is listed as 5.8 ^cd, the “Hatch Day 7” value is given as 5.6 ^cd and the pest or weed control at 0.1 % fell in the range of 64 to 80%. Besides, the “inactive J2 that hatched from the eggs” value in the data set on Heterodera glycines eggs (by Day 7) is listed as 100%. In addition, in data set [2] (0.1%), the “% Active Day 1” value is 17.2 ^d % and the “% Active Day 2” value is reported as 10.8 ^fg %. In addition, the viability at 0.1 % in data set [2] stood at 12.1%.
